Our source for the IC50 values is the Kinase Knowledgebase extract (Sharma et al. 2016).

≈ marks a conversion by molar mass, not a printed value. Where “and” joins values, the source holds several entries; their conditions need not be identical. Identical values can stand only once. Where only a bound is given, the exact number is not on record here.

For this assay, the target named is EGFR (UniProt P00533).
EGFR, sequence (P00533 whole entry, looked up): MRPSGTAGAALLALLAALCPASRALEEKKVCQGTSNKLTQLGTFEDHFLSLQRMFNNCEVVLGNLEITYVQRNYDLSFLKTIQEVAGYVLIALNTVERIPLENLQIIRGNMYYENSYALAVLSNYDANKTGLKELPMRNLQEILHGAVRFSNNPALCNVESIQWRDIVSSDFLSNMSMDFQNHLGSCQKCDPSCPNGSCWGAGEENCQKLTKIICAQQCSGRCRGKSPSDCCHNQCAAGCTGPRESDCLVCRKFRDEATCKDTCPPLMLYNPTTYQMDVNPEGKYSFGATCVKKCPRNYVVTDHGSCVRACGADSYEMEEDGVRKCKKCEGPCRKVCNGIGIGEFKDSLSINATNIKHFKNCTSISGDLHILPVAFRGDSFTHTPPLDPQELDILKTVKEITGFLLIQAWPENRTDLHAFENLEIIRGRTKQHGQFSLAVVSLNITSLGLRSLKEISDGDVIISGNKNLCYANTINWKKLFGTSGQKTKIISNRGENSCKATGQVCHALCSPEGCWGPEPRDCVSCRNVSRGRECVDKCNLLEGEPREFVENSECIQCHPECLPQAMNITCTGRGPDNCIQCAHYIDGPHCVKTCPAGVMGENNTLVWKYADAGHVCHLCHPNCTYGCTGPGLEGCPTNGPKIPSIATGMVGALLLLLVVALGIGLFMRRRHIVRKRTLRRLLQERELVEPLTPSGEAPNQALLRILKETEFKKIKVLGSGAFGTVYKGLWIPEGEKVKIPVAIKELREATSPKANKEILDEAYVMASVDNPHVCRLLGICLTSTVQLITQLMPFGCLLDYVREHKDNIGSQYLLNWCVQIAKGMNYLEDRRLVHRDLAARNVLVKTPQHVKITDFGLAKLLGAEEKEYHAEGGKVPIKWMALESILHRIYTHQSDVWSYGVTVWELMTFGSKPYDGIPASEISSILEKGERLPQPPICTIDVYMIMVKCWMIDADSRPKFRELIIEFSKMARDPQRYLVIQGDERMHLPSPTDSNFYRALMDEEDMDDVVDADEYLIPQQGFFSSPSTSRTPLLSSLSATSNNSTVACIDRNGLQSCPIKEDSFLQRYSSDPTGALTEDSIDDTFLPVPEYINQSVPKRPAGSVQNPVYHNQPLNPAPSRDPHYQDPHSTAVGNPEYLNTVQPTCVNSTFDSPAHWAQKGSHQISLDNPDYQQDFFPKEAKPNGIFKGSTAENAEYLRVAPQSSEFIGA
As usually defined, the IC50 is the point on the concentration scale where inhibition reaches its midpoint. Read a low IC50 as greater potency. As to `COc1cccc(Nc2ncnc(-n3c(N)nc4ccccc43)n2)c1`, the IC50 lay in the range of 2.4 to 3.5 µg/mL (≈ 7.2 to 10.5 µM). `COc1ccc(Nc2ncnc(-n3c(N)nc4ccccc43)n2)cn1`: the IC50 was > 4.5 µg/mL. On to `COc1cccc(CCNc2ncnc(Nc3ccc4c(cnn4Cc4ccccc4)c3)n2)c1OC`, for which the IC50 was > 4.5 µg/mL. The molecule `COc1cc(Nc2ncnc(-n3c(N[C@@H](CO)c4ccccc4)nc4ccccc43)n2)cc(OC)c1OC` returned a half-maximal inhibitory concentration (IC50) of 0.4 to 2.4 µg/mL (≈ 0.779 to 4.67 µM). On to `COc1cc(Nc2ncnc(-n3c(NCc4ccc5c(c4)OCO5)nc4ccccc43)n2)cc(OC)c1OC`, for which the IC50 was > 4.5 µg/mL. Take `CNS(=O)(=O)Cc1ccc(Nc2ncnc(Nc3ccc4c(cnn4Cc4ccccc4)c3)n2)cc1`: the IC50 fell in the range of 0.4 to 2.4 µg/mL (≈ 0.799 to 4.79 µM). On to `COc1cc(Nc2ncnc(N3CCCC4CCCCC43)n2)cc(OC)c1OC` (stereo not given), for which the IC50 is < 0.4 µg/mL.

`COc1cc(Nc2ncnc(-n3ccnc3Cl)n2)cc(OC)c1OC` had an IC50 of 0.4 to 2.4 µg/mL (≈ 1.1 to 6.62 µM). Take `COc1cc(Nc2ncnc(Nc3ccc4cn[nH]c4c3)n2)cc(OC)c1OC`: the IC50 lay within 0.4 to 2.4 µg/mL (≈ 1.02 to 6.1 µM). In the case of `COc1cc(Nc2ncnc(-n3c(NCc4ccc(C)cc4C)nc4ccccc43)n2)cc(OC)c1OC` it was > 4.5 µg/mL and 2.4 to 3.5 µg/mL; in that of `O=c1[nH]c2ccccc2n1-c1ncnc(Nc2ccc(NS(=O)(=O)c3ccc([N+](=O)[O-])cc3)cc2)n1`, 0.4 to 2.4 µg/mL (≈ 0.793 to 4.76 µM). With `COc1cc(Nc2ncnc(-c3ccc(N(C)C)nc3)n2)cc(OC)c1OC`, the IC50 was > 4.5 µg/mL. On to `CCOC(=O)CNc1ncnc(N2CCCc3cc(C)ccc32)n1`, for which the IC50 was > 4.5 µg/mL.

Consider `COc1cc(Nc2ncnc(Nc3ccc(NCc4ccccc4)cc3)n2)cc(OC)c1OC`, for which the IC50 is > 4.5 µg/mL.

For `COc1cc(Nc2ncnc(Nc3cccc4ncccc34)n2)cc(OC)c1OC`, the IC50 was 2.4 to 3.5 µg/mL (≈ 5.93 to 8.65 µM). With `COc1cc(Nc2ncnc(-n3c(NC(CO)c4ccccc4)nc4ccccc43)n2)cc(OC)c1OC` (stereo not given) the figure was > 4.5 µg/mL; with `CN(c1cccc(Cl)c1)c1ncnc(NCCN2CCCCC2)n1`, 2.4 to 3.5 µg/mL (≈ 6.92 to 10.1 µM); with `Cc1ccc2c(c1)CCCN2c1ncnc(Nc2cccc(Cl)c2C)n1`, 2.4 to 3.5 µg/mL (≈ 6.56 to 9.57 µM). `COc1ccc(Nc2ncnc(Nc3ccc(F)c(F)c3)n2)cc1OC`: the IC50 lay within 0.4 to 2.4 µg/mL (≈ 1.11 to 6.68 µM).

With `COc1cc(Nc2ncnc(-c3ccc(N4CCNCC4)nc3)n2)cc(OC)c1OC`, the IC50 was 3.5 to 4.5 µg/mL (≈ 8.26 to 10.6 µM).

For the molecule `COc1cc(Nc2ncnc(Nc3ccc(-c4ccccc4)cc3)n2)cc(OC)c1OC`, the IC50 lay in the range of 3.5 to 4.5 µg/mL (≈ 8.15 to 10.5 µM).

`COc1cc(Nc2ncnc(-c3ccccc3)n2)cc(OC)c1`: the IC50 is > 4.5 µg/mL.

Consider `COc1cc(Nc2ncnc(N3CCN(C(=O)OC(C)(C)C)CC3)n2)cc(OC)c1OC`, for which the IC50 is > 4.5 µg/mL. Take `c1ccc(Nc2ncccc2-c2ncnc(Nc3cccc(Cn4ccnn4)c3)n2)cc1`: the half-inhibitory concentration (IC50) was > 4.5 µg/mL.

As for `COC(=O)c1cccc(Nc2ncnc(-n3c(NCc4ccccc4)nc4ccccc43)n2)c1`, the IC50 lay in the range of 0.4 to 2.4 µg/mL (≈ 0.886 to 5.32 µM). `COc1cc(Nc2ncnc(Nc3ccccc3C)n2)cc(OC)c1OC`: the IC50 is 2.4 to 3.5 µg/mL (≈ 6.53 to 9.53 µM). Molecule `COc1cc(Nc2ncnc(Nc3ccc(Br)cc3)n2)cc(OC)c1OC` had an IC50 of 0.4 to 2.4 µg/mL (≈ 0.925 to 5.55 µM). In the case of `O=C(O)CCc1cccc(Nc2ncnc(Nc3cc(-c4ccco4)[nH]n3)n2)c1` it was < 0.4 µg/mL; in that of `CCN1CCCC1CNc1ncnc(Nc2ccc(OC)c(OC)c2)n1` (stereo not given), > 4.5 µg/mL. Consider `O=C(O)Cc1cccc(Nc2ncnc(Nc3cccc(Br)c3)n2)c1`, for which the IC50 was < 0.4 µg/mL. Regarding `CN(c1cccc(Cl)c1)c1ncnc(Nc2ccc(CC(=O)O)cc2)n1`, the IC50 was < 0.4 µg/mL. In the case of `COc1ccc(Nc2ncnc(-n3c(N)nc4ccccc43)n2)cc1O` it was 2.4 to 3.5 µg/mL (≈ 6.87 to 10 µM). As to `COc1ccc(CCNc2ncnc(Nc3cc(-c4ccco4)[nH]n3)n2)cc1OC`, the IC50 is > 4.5 µg/mL.

For `CCN(CC)CCN(C)c1ncnc(Nc2ccc(OC)c(OC)c2)n1`, the IC50 was > 4.5 µg/mL.

On to `COc1ccc(Nc2ncnc(Nc3ccc(OCc4ccccc4)cc3)n2)cc1`, for which the IC50 is > 4.5 µg/mL. In the case of `COc1cc(Nc2ncnc(Nc3ccc(O)cc3)n2)cc(OC)c1OC` it was 0.4 to 2.4 µg/mL (≈ 1.08 to 6.5 µM). As for `OCCCNc1ncnc(-c2ccccc2)n1`, the IC50 was > 4.5 µg/mL. `CCN(CC)CCOc1ccc(Nc2ncnc(Nc3cc(OC)c(OC)c(OC)c3)n2)cc1OC`: the IC50 was 0.4 to 2.4 µg/mL (≈ 0.802 to 4.81 µM).

In the case of `COc1cc(Nc2ncnc(N3CCN(c4ccccn4)CC3)n2)cc(OC)c1OC`, the 50% inhibitory concentration (IC50) was > 4.5 µg/mL. In the case of `CN(c1ccc2c(cnn2Cc2ccccc2)c1)c1ncnc(Nc2cccc(Br)c2)n1` it was < 0.4 µg/mL; in that of `COc1cc(OC)cc(-c2nnc(Nc3ncnc(Nc4cc(OC)c(OC)c(OC)c4)n3)[nH]2)c1`, > 4.5 µg/mL. As for `COc1cc(Nc2ncnc(Nc3cc(F)cc(C(F)(F)F)c3)n2)cc(OC)c1OC`, the concentration for half-maximal inhibition (IC50) is < 0.4 µg/mL.

Regarding `COc1cc(Nc2ncnc(-n3c(Nc4cc(OC)c(OC)c(OC)c4)nc4ccccc43)n2)cc(OC)c1OC`, the IC50 was > 4.5 µg/mL.

For the molecule `COC(=O)c1ccc(Nc2ncnc(Nc3cc(-c4ccco4)n[nH]3)n2)cc1`, the IC50 is > 4.5 µg/mL. For `CN(c1ccc2c(cnn2Cc2ccccc2)c1)c1ncnc(Nc2cccc(Cc3nnn[nH]3)c2)n1`, the IC50 was < 0.4 µg/mL.
